These compounds were tested on Lung cancer cell line NCI-H358 containing KRas G12C mutation (assay: Assay for cell proliferation (Cell-titer Glo, 5 days)). Settings: Homo sapiens, NCI-H358, 120 h, NCI-H358, 5 days, Cell-titer Glo; read-out: IC50 (nM), Inhibition of NCI-H358 Cell Proliferation.
Assay type: cell-based, human
Protocol: One hundred fifty microliter (150 μL) of media containing 2000 cells per well were seeded into each well of a 96-well culture plate and left to attach overnight in a 37° C. incubator with 5% CO2. Diluted compounds of 0.75 μL for each well were added by liquid handler at a final concentration of 0.5% DMSO. Cells were treated for 5 days in the incubator. Cell-titer Glo (CTG) kit (Promega) was used to assess cell proliferation. Of note, 120 μL of CTG reagent was added to each well and incubated at RT for 10 minutes.

Compared with `C=CC(=O)N1C[C@H](C)N(c2nc(=O)n(-c3c(C(C)C)ncnc3C(C)C)c3nc(-c4c(N)cccc4F)c(F)cc23)C[C@H]1C` [4-((2S,5R)-4-acryloyl-2,5-dimethylpiperazin-1-yl)-7-(2-amino-6-fluorophenyl)-1-(4,6-diisopropylpyrimidin-5-yl)-6-fluoropyrido[2,3-d]pyrimidin-2(1H)-one], `C=CC(=O)N1C[C@H](C)N(c2nc(=O)n(-c3c(C(C)C)ncnc3C(C)C)c3nc(-c4c(N)cccc4F)c(Cl)cc23)C[C@H]1C` [4-((2S,5R)-4-acryloyl-2,5-dimethylpiperazin-1-yl)-7-(2-amino-6-fluorophenyl)-6-chloro-1-(4,6-diisopropylpyrimidin-5-yl)pyrido[2,3-d]pyrimidin-2(1H)-one] is 3.3-fold lower in IC50: 5.3 nM for the first, 1.6 nM for the second. The second is the more potent here.

Compared with `C=CC(=O)N1C[C@H](C)N(c2nc(=O)n(-c3c(C(C)C)ncnc3C(C)C)c3nc(-c4ccccc4F)c(F)cc23)C[C@H]1C` [4-((2S,5R)-4-acryloyl-2,5-dimethylpiperazin-1-yl)-7-(2-fluorophenyl)-1-(4,6-diisopropylpyrimidin-5-yl)-6-fluoropyrido[2,3-d]pyrimidin-2(1H)-one], `C=CC(=O)N1C[C@H](C)N(c2nc(=O)n(-c3c(C(C)C)ncnc3C(C)C)c3nc(-c4ccccc4F)c(Cl)cc23)C[C@H]1C` [4-((2S,5R)-4-acryloyl-2,5-dimethylpiperazin-1-yl)-7-(2-fluorophenyl)-6-chloro-1-(4,6-diisopropylpyrimidin-5-yl)pyrido[2,3-d]pyrimidin-2(1H)-one] is 4.8-fold lower in IC50: 19 nM for the first, 4 nM for the second.

Compared with `C=CC(=O)N1CCN(c2nc(=O)n(-c3c(C(C)C)ncnc3C(C)C)c3nc(-c4ccccc4F)c(Cl)cc23)C[C@@H]1CC#N` [Compound 2], `C=CC(=O)N1CCN(c2nc(=O)n(-c3c(C4CC4)ncnc3C3CC3)c3nc(-c4ccccc4F)c(Cl)cc23)C[C@@H]1CC#N` [Compound 5] is 7.2-fold higher in IC50: 23.9 nM for the first, 172 nM for the second. The first is the more potent here.

Compared with `C=CC(=O)N1CCN(c2nc(=O)n(-c3c(C4CC4)ncnc3C3CC3)c3nc(-c4cccc5[nH]nc(N)c45)c(Cl)cc23)[C@@H](C)C1` [Compound 3], `C=CC(=O)N1CCN(c2nc(=O)n(-c3c(C4CC4)ncnc3C3CC3)c3nc(-c4cccc5[nH]nc(N)c45)c(F)cc23)[C@@H](C)C1` [Compound 36] is higher in IC50: 661 nM for the first, over 3000 nM for the second.

Compared with `C=CC(=O)N1CCN(c2nc(=O)n(-c3c(C4CC4)ncnc3C3CC3)c3nc(-c4ncccc4F)c(Cl)cc23)[C@@H](C)C1` [Compound 4], `C=CC(=O)N1CCN(c2nc(=O)n(-c3c(C4CC4)ncnc3C3CC3)c3nc(-c4ccccc4F)c(F)cc23)[C@@H](C)C1` [Compound 39] is 3.4-fold lower in IC50: 130 nM for the first, 38.2 nM for the second.

Compared with `C=CC(=O)N1CCN(c2nc(=O)n(-c3c(C(C)C)nc(N4CCC4)nc3C(C)C)c3nc(-c4ccccc4F)c(Cl)cc23)[C@@H](C)C1` [Compound 7], `C=CC(=O)N1CCN(c2nc(=O)n(-c3c(C(C)C)nc(NC)nc3C(C)C)c3nc(-c4ccccc4F)c(Cl)cc23)[C@@H](C)C1` [Compound 11] is 3.3-fold lower in IC50: 30.6 nM for the first, 9.2 nM for the second. The second is the more potent here.

Compared with `C=CC(=O)N1CCN(c2nc(=O)n(-c3c(C(C)C)nc(N(C)C)nc3C(C)C)c3nc(-c4ccccc4F)c(Cl)cc23)[C@@H](C)C1` [Compound 12], `C=CC(=O)N1CCN(c2nc(=O)n(-c3c(C(C)C)nc(OCCOC)nc3C(C)C)c3nc(-c4ccccc4F)c(Cl)cc23)[C@@H](C)C1` [Compound 32] is 13-fold lower in IC50: 107 nM for the first, 8.5 nM for the second. The second is the more potent here.

First: C=CC(=O)N1CCN(c2nc(=O)n(-c3c(C(C)C)nc(OCC(C)(C)O)nc3C(C)C)c3nc(-c4ccccc4F)c(Cl)cc23)[C@@H](C)C1 [Compound 16]
Second: C=CC(=O)N1CCN(c2nc(=O)n(-c3c(C(C)C)nc(OCC(C)O)nc3C(C)C)c3nc(-c4ccccc4F)c(Cl)cc23)[C@@H](C)C1 (stereo partly drawn) [Compound 19]
The IC50 of the first is 1.6-fold higher: 8 nM for the first, 5 nM for the second.

`C=CC(=O)N1CCN(c2nc(=O)n(-c3c(C(C)C)nc(OC4CCN(C)C4)nc3C(C)C)c3nc(-c4ccccc4F)c(Cl)cc23)[C@@H](C)C1` (stereo partly drawn) [Compound 17] and `C=CC(=O)N1CCN(c2nc(=O)n(-c3c(C(C)C)nc(OC4CN(C)C4)nc3C(C)C)c3nc(-c4ccccc4F)c(Cl)cc23)[C@@H](C)C1` [Compound 18] are within 1.5-fold of each other in IC50: 14.4 nM for the first, 16 nM for the second.

Compared with `C=CC(=O)N1CCN(c2nc(=O)n(-c3c(C4CC4)nc(C#N)nc3C3CC3)c3nc(-c4c(O)cccc4F)c(F)cc23)[C@@H](C)C1` [Compound 25], `C=CC(=O)N1CCN(c2nc(=O)n(-c3c(C4CC4)nc(C#N)nc3C3CC3)c3nc(-c4ccccc4F)c(F)cc23)[C@@H](C)C1` [Compound 26] is 3.2-fold higher in IC50: 52.5 nM for the first, 168 nM for the second. The first is the more potent here.

`C=CC(=O)N1CCN(c2nc(=O)n(-c3c(C4CC4)nc(C)nc3C3CC3)c3nc(-c4ccccc4F)c(F)cc23)[C@@H](C)C1` [Compound 27] and `C=CC(=O)N1CCN(c2nc(=O)n(-c3c(C4CC4)nc(N)nc3C3CC3)c3nc(-c4ccccc4F)c(F)cc23)[C@@H](C)C1` [Compound 30] are within 1.5-fold of each other in IC50: 69.9 nM for the first, 52.7 nM for the second.

`C=CC(=O)N1[C@H](C)CN(c2nc(=O)n(-c3c(C(C)C)nc(OCCN(C)C)nc3C(C)C)c3nc(-c4ccccc4F)c(Cl)cc23)C[C@@H]1C` [Compound 31] and `C=CC(=O)N1C[C@H](C)N(c2nc(=O)n(-c3c(C(C)C)nc(C)nc3C(C)C)c3nc(-c4ccccc4F)c(F)cc23)C[C@H]1C` [Compound 49] are within 1.5-fold of each other in IC50: 28.2 nM for the first, 25 nM for the second.

`C=CC(=O)N1CCN(c2nc(=O)n(-c3c(C4CC4)nc(NCCN(C)C)nc3C3CC3)c3nc(-c4ccccc4F)c(F)cc23)[C@@H](C)C1` [Compound 33] and `C=CC(=O)N1CCN(c2nc(=O)n(-c3c(C4CC4)nc(NC(C)=O)nc3C3CC3)c3nc(-c4ccccc4F)c(F)cc23)[C@@H](C)C1` [Compound 35] are within 1.5-fold of each other in IC50: 67.5 nM for the first, 58.2 nM for the second.

First: C=CC(=O)N1CCN(c2nc(=O)n(-c3c(C4CC4)nc(N4CC(N(C)C)C4)nc3C3CC3)c3nc(-c4ccccc4F)c(F)cc23)[C@@H](C)C1 [Compound 34]
Second: C=CC(=O)N1C[C@H](C)N(c2nc(=O)n(-c3c(C4CC4)nc(C)nc3C3CC3)c3nc(-c4ccccc4F)c(F)cc23)C[C@H]1C [Compound 50]
The IC50 of the first is 1.8-fold lower: 58.3 nM for the first, 107 nM for the second.

`C=CC(=O)N1C[C@H](C)N(c2nc(=O)n(-c3c(C4CC4)ncnc3C3CC3)c3nc(-c4cccc5[nH]nc(N)c45)c(F)cc23)C[C@H]1C` [Compound 37] and `C=CC(=O)N1[C@H](C)CN(c2nc(=O)n(-c3c(C4CC4)ncnc3C3CC3)c3nc(-c4cccc5[nH]nc(N)c45)c(F)cc23)C[C@@H]1C` [Compound 38] cannot be ordered by IC50: over 3000 nM for the first, over 3000 nM for the second.

First: C=CC(=O)N1C[C@H](C)N(c2nc(=O)n(-c3c(C4CC4)ncnc3C3CC3)c3nc(-c4ccccc4F)c(F)cc23)C[C@H]1C [Compound 42]
Second: C=CC(=O)N1C[C@H](C)N(c2nc(=O)n(-c3c(C4CC4)ncnc3C3CC3)c3nc(-c4c(O)cccc4F)c(F)cc23)C[C@H]1C [Compound 43]
The IC50 of the first is 2.5-fold higher: 39.5 nM for the first, 15.5 nM for the second.

Going from `C=CC(=O)N1[C@H](C)CN(c2nc(=O)n(-c3c(C4CC4)ncnc3C3CC3)c3nc(-c4ccccc4F)c(F)cc23)C[C@@H]1C` [Compound 45] to `C=CC(=O)N1[C@H](C)CN(c2nc(=O)n(-c3c(C4CC4)ncnc3C3CC3)c3nc(-c4c(O)cccc4F)c(F)cc23)C[C@@H]1C` [Compound 46], the IC50 falls from 299 nM to 81.5 nM (3.7-fold).

`C=CC(=O)N1[C@H](C)CN(c2nc(=O)n(-c3c(C4CC4)ncnc3C3CC3)c3nc(-c4c(N)cccc4F)c(F)cc23)C[C@@H]1C` [Compound 47] and `C=CC(=O)N1[C@H](C)CN(c2nc(=O)n(-c3c(C4CC4)nc(C)nc3C3CC3)c3nc(-c4c(N)cccc4F)c(F)cc23)C[C@@H]1C` [Compound 54] are within 1.5-fold of each other in IC50: 23.8 nM for the first, 34.6 nM for the second.

Going from `C=CC(=O)N1CCN(c2nc(=O)n(-c3c(C(C)C)nc(C)nc3C(C)C)c3nc(-c4ccccc4F)c(F)cc23)[C@@H](C)C1` [Compound 48] to `C=CC(=O)N1[C@H](C)CN(c2nc(=O)n(-c3c(C4CC4)nc(C)nc3C3CC3)c3nc(-c4ccccc4F)c(F)cc23)C[C@@H]1C` [Compound 53], the IC50 rises from 25.8 nM to 617 nM (24-fold). The first is the more potent here.

Compared with `C=CC(=O)N1C[C@H](C)N(c2nc(=O)n(-c3c(C4CC4)nc(C)nc3C3CC3)c3nc(-c4c(N)cccc4F)c(F)cc23)C[C@H]1C` [Compound 51], `C=CC(=O)N1[C@H](C)CN(c2nc(=O)n(-c3c(C4CC4)nc(C)nc3C3CC3)c3nc(-c4c(O)cccc4F)c(F)cc23)C[C@@H]1C` [Compound 55] is 5.9-fold higher in IC50: 12.5 nM for the first, 74.3 nM for the second.

Same assay, conditions: NCI-H358, 5 days, Cell-titer Glo; read-out: IC50 (nM), Inhibition of NCI-H358 Cell Proliferation

In order of falling IC50:
1. C=CC(=O)N1C[C@H](C)N(c2nc(=O)n(-c3c(C4CC4)ncnc3C3CC3)c3nc(-c4ccccc4F)c(F)cc23)C[C@H]1C [Compound 42]  38.5 nM
2. C=CC(=O)N1C[C@H](C)N(c2nc(=O)n(-c3c(C(C)C)nc4c(ncn4C)c3C)c3nc(-c4c(N)cccc4F)c(Cl)cc23)C[C@H]1C (single isomer, unassigned) [Compound 183]  27.4 nM
3. C=CC(=O)N1C[C@H](C)N(c2nc(=O)n(-c3c(C(C)C)nc4c(ncn4C)c3C)c3nc(-c4c(O)cccc4F)c(Cl)cc23)C[C@H]1C (single isomer, unassigned) [Compound 185]  21.7 nM
4. C=CC(=O)N1C[C@H](C)N(c2nc(=O)n(-c3c(C(C)C)nc4c(ncn4C)c3C)c3nc(-c4ccccc4F)c(Cl)cc23)C[C@H]1C (single isomer, unassigned) [Compound 182]  1.7 nM
5. C=CC(=O)N1C[C@H](C)N(c2nc(=O)n(-c3c(F)cc4c(ncn4C)c3C3CC3)c3nc(-c4c(N)cccc4F)c(Cl)cc23)C[C@H]1C (single isomer, unassigned) [Compound 178]  0.9 nM
6. C=CC(=O)N1C[C@H](C)N(c2nc(=O)n(-c3c(C(C)C)nc4c(ncn4C)c3C)c3nc(-c4c(O)cccc4F)c(Cl)cc23)C[C@H]1C (single isomer, unassigned) [Compound 186]  0.9 nM
7. C=CC(=O)N1C[C@H](C)N(c2nc(=O)n(-c3c(C(C)C)nc4c(ncn4C)c3C)c3nc(-c4c(N)cccc4F)c(Cl)cc23)C[C@H]1C (single isomer, unassigned) [Compound 184]  0.2 nM

Same assay, conditions: NCI-H358 IC50 comparison

With `C=CC(=O)N1C[C@H](C)N(c2nc(=O)n(-c3c(C(C)C)ncnc3C(C)C)c3nc(-c4c(N)cccc4F)c(Cl)cc23)C[C@H]1C` [4-((2S,5R)-4-acryloyl-2,5-dimethylpiperazin-1-yl)-7-(2-amino-6-fluorophenyl)-6-chloro-1-(4,6-diisopropylpyrimidin-5-yl)pyrido[2,3-d]pyrimidin-2(1H)-one] the “fold more potent: 2-amino-6-fluoro-phenyl compound vs. corresponding 2-fluoro-phenyl compound at R8” value was “only slightly more potent”.

Source: patent US12110289B2, “Heterocyclic compounds, preparation methods and uses thereof” (InventisBio Co., Ltd., priority 2020, dated 2024)
